Format in all cases: cell-based
In test [1] the test system is Streptococcus mutans (ATCC 25175). The test can be described thus: Minimum inhibitory concentration, Streptococcus mutans. As for the experimental part: (§1) Method for Determining the Minimum Inhibitory Concentration
(§2) The samples, to determine the minimum inhibitory concentration, are dissolved in WSH (water of standardized hardness) and mixed with twice-concentrated Caso-Bouillon pH 5.5. After inoculation with the test organisms, the solutions of the test organisms Streptococcus mutans (ATCC 25175) and Actinomyces odontolyticus (ATCC 17982) were overlayered with paraffin and incubated for a period of three days at a temperature of 37° C.
(§3) The solution of the test organism Staphylococcus aureus (ATCC 6538) was incubated for two days at 37° C. The samples were then streaked onto Caso agar and incubated for two days at 37° C.

Test [2] concerns Actinomyces odontolyticus (ATCC 17982). The test can be described thus: Minimum inhibitory concentration, Actinomyces odontolyticus. On the procedure:
as §1, §2, §3

Test [3] has as its system Staphylococcus aureus (ATCC 6538). The test can be described thus: Minimum inhibitory concentration, Staphylococcus aureus. On the procedure: as §1, §2, §3
Setting [4] is: Streptococcus mutans (ATCC 25175), Caso-Bouillon pH 5.5, overlayered with paraffin, three days at 37° C.
The mark [5] stands for this setting: Actinomyces odontolyticus (ATCC 17982), Caso-Bouillon pH 5.5, overlayered with paraffin, three days at 37° C.
Setting [6] is: Staphylococcus aureus (ATCC 6538), Caso-Bouillon pH 5.5, two days at 37° C.

For `CC1=CC(=O)[N-]S(=O)(=O)O1.[Ag+]` [Ag(acesulfame).0.25H2O, Acesulfame-Silver Complex], the figures for the Minimum inhibitory concentration in test [1] (setting [4]), in test [2] (setting [5]) and in test [3] (setting [6]) were 18.31 mM, 18.31 mM and 3.65 mM, respectively.
With `O=[N+]([O-])[O-].[Ag+]` [AgNO3, silver(I) nitrate], the Minimum inhibitory concentration in test [1] (setting [4]), in test [2] (setting [5]) and in test [3] (setting [6]) was 5.91 mM each time.
Take `CCCCCCCCCCCCCCCC[n+]1ccccc1.O.[Cl-]` [Cetylpridinium chloride.H2O, cetylpyridinium chloride.H2O]: the Minimum inhibitory concentration in test [1] (pH 5.5) was determined as 0.00279 mM; in test [2] (pH 5.5), 0.00279 mM; in test [3] (pH 5.5), 0.13966 mM.
In the case of `CC1=CC(=O)[N-]S(=O)(=O)O1.CCCCCCCCCCCCCCCC[n+]1ccccc1` [Cetylpyridinium(acesulfame), Acesulfame-Cetylpyridinium Complex], the values for the Minimum inhibitory concentration in test [1] (pH 5.5), in test [2] (pH 5.5) and in test [3] (pH 5.5) were 0.00214 mM, 0.00214 mM and 0.10703 mM, respectively.
On to `O.O.O.O.O.O=S(=O)([O-])[O-].[Cu+2]` [CuSO4.5H2O, copper(II) sulfate pentahydrate], for which the figures for the Minimum inhibitory concentration in test [1] (pH 5.5), in test [2] (pH 5.5) and in test [3] (pH 5.5) were 4.01 mM, 20.13 mM and 20.13 mM, respectively.
In the case of `CC1=CC(=O)[N]([Zn]([OH])([OH])[N]2C(=O)C=C(C)OS2(=O)=O)S(=O)(=O)O1` [Zn(acesulfame)2.2H2O, Acesulfame-Zinc Complex], the MIC (in general, the smallest concentration in the dilution series that meets the test's criterion for growth inhibition) in test [1] (ATCC25175, 72 h, Streptococcus mutans (ATCC 25175), Caso-Bouillon pH 5.5, overlayered with paraffin, three days at 37° C.) stood at 23.7 mM; in test [2] (Schaalia odontolytica, ATCC17982, 72 h, Actinomyces odontolyticus (ATCC 17982), Caso-Bouillon pH 5.5, overlayered with paraffin, three days at 37° C.), 11.8 mM; in test [3] (ATCC6538, 48 h, Staphylococcus aureus (ATCC 6538), Caso-Bouillon pH 5.5, two days at 37° C.), 23.7 mM.
With `O.O.O.O.O.O.O.O=S(=O)([O-])[O-].[Zn+2]` [ZnSO4.7H2O, zinc(II) sulfate heptahydrate], the Minimum inhibitory concentration in test [1] (pH 5.5), in test [2] (pH 5.5) and in test [3] (pH 5.5) was 17.5 mM each time.

The values are drawn from patent US6759544B2, “Antimicrobially active acesulfame complexes, process for their preparation and their use” (Nutrinova Nutrition Specialties & Food Ingredients GmbH, priority 2001, dated 2004).
